Reference: patent US10688061B2, “Formation of delivery agents targeted to degraded elastic fibers” (priority 2012, dated 2020)

Tested on: Rat aortic vascular smooth muscle cells
Conditions: positive control (FIG. 22)
Procedure: Cells were seeded at 10,000 cells/cm^2. At 70% confluency, cells were incubated with nanoparticles for 4 hours following which cell viability was determined using a LIVE/DEAD Cell Viability assay (Molecular Probes, Grand Island, N.Y.). Cells fluorescing green were considered alive while cells fluorescing red were considered dead. Additionally, proliferation of cells was estimated using the MTT (3-(4,5-Dimethyl-2-thiazolyl)-2,5-diphenyl-2H-tetrazolium bromide) assay. Briefly, 5 mg of MTT (Sigma Aldrich, St. Louis, Mo.) was dissolved in 10 ml of serum-free media and added to cells. After 4 hours, media was carefully aspirated and the insoluble formazan dye was collected with dimethyl sulfoxide (DMSO) (Sigma Aldrich, St, Louis, Mo.). Absorbance was read at 560 nm and normalized to control (no treatment) readings.

CCO [70% ethanol, ethanol]
Cell death: > 95%
